Like-named read-outs stand apart in the source and are kept apart here.
Experiments:
NUDT7 = biological target: T1, NUDT7 (Homo sapiens, UniProt P0C024); design: Intact protein LC/MS covalent labelling, fragments in pools of five, 200 uM each, 4 °C; settings: 24 h, 4 °C, pool of five; 200 µM; covalent
T1 construct: residues 14-235, E. coli, pNIC28-Bsa4, N-terminal His6 tag removed by TEV, construct 26672 Da

PCAF = biological target: T2, PCAF (Homo sapiens, UniProt Q92831); design: Intact protein LC/MS covalent labelling, fragments in pools of five, 200 uM each, 4 °C; settings: 24 h, 4 °C, pool of five; 200 µM; covalent
T2 construct: gene KAT2B

BSA = biological target: T3, BSA (Bos taurus, UniProt P02769); design: Intact protein LC/MS covalent labelling, fragments in pools of five, 200 uM each, 4 °C; settings: 24 h, 4 °C, pool of five; 200 µM; covalent
T3 construct: gene ALB

OTUB2 (OTUB2A) = biological target: T4, OTUB2 (OTUB2A) (Homo sapiens, UniProt Q96DC9); design: Intact protein LC/MS covalent labelling, fragments in pools of five, 200 uM each, 4 °C; settings: 24 h, 4 °C, pool of five; 200 µM; covalent
T4 construct: full length residues 1-234, E. coli BL21(DE3)-R3, His tag removed by TEV, construct 27312 Da
T4 sequence (Q96DC9 1-234): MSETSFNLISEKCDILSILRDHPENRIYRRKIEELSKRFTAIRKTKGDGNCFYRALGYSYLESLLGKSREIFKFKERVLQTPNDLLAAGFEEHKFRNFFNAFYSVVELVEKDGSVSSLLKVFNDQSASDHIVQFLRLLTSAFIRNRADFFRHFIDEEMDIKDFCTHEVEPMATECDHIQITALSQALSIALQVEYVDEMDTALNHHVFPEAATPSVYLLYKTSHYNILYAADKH

in vitro [1] = assay: in vitro; design: species or system HB2, CCD841; settings: human, hek293 cells
in vitro [2] = assay: in vitro; design: species or system CCD841, HEK293; settings: human, hb2 cells, read-out: HB-2 Cells Viability (%)
in vitro [3] = assay: in vitro; design: species or system HB2, HEK293; settings: human, ccd841 cells

T3 sequence (P02769 whole entry, the tested form may be a part): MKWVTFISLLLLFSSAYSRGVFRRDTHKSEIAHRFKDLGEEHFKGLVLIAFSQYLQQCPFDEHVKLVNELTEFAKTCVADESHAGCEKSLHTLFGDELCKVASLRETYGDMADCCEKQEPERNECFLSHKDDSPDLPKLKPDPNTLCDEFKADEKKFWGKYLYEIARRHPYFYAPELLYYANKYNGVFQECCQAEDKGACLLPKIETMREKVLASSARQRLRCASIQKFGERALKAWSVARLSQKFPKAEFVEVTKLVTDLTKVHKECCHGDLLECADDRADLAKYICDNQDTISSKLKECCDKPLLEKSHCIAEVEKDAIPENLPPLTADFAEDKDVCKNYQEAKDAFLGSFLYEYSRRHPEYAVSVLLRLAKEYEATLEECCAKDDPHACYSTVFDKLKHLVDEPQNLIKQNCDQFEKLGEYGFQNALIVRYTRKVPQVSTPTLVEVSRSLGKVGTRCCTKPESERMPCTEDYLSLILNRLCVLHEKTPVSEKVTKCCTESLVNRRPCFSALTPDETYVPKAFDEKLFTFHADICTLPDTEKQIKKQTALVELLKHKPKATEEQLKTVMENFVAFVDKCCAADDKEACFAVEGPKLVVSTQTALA
T2 sequence (Q92831 whole entry, the tested form may be a part): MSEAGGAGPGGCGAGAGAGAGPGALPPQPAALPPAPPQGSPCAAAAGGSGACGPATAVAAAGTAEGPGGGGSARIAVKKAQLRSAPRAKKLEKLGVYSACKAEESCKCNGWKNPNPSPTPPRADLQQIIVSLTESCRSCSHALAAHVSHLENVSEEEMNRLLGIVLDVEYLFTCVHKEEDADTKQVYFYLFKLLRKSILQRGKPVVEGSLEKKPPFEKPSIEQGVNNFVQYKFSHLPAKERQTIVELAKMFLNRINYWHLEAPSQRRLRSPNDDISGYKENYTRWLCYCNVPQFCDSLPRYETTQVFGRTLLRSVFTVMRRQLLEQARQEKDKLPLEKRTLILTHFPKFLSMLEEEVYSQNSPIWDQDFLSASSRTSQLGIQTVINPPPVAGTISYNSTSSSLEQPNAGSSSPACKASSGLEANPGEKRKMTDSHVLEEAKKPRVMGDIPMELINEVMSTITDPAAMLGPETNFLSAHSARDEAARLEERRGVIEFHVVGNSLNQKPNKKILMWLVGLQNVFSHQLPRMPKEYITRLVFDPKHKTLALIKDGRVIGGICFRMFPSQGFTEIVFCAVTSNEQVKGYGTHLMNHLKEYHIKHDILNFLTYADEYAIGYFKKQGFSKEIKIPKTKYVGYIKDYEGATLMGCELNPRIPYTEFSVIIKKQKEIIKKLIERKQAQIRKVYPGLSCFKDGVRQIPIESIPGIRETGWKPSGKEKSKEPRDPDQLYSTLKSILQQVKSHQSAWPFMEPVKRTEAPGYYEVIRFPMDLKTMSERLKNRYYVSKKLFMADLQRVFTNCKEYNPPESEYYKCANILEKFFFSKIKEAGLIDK
T1 sequence (P0C024 14-235): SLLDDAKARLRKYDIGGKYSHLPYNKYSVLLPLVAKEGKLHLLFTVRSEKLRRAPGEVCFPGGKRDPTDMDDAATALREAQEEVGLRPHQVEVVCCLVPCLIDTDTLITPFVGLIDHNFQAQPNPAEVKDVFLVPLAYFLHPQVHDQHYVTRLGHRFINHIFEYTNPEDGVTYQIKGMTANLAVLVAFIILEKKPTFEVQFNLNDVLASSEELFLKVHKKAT

Compound | NUDT7 (NUDT7) | PCAF (PCAF) | BSA (BSA) | OTUB2 (OTUB2 (OTUB2A)) | viability at 48 h, 10 µM (in vitro [1]) | viability at 48 h, 10 µM (in vitro [2]) | viability at 48 h, 10 µM (in vitro [3])
CCOC(=O)C1CCCCN1C(=O)CCl (stereo not drawn) [PCM-0102937] | 0 | 0 | 0 | 0.13 | 71.9% | 90.3% | 89.4%
O=C(CCl)N1CCN(c2ncc(C(F)(F)F)cc2Cl)CC1 [PCM-0102378] | 0.14 | 0 | 0 | 0.05 | 1.8% | 1.8% | 2.9%
O=C(CCl)Nc1ccc(F)cc1Cl [PCM-0103040] | 0 | 0 | 0 | 0 | 60.3% | 76.9% | 68.7%
C=CC(=O)N1CCC(S(=O)(=O)NC)C1 (stereo not drawn) [PCM-0102463] | 0 | 0 | 0 | 0 | 99.6% | 97.2% | 104%
CN(Cc1ccco1)C(=O)CCl [PCM-0102672] | 0.1 | 0 | 0 | 0 | 49.1% | 51.9% | 78.1%
O=C(CCl)NC1CCCCNC1=O (stereo not drawn) [PCM-0102109] | 0 | 0 | 0 | 0 | 109% | 94.1% | 103%
CN(C)c1ccc(Cl)cc1NC(=O)CCl [PCM-0102840] | 0.14 | 0.23 | 0 | 0.06 | 63.2% | 29.2% | 85.9%
O=C(CCl)NCc1ccc(F)cc1C(F)(F)F [PCM-0102733] | 0.06 | 0 | 0 | 0.33 | 68.8% | 86.6% | 79.1%
NS(=O)(=O)c1ccc(Cl)c(NC(=O)CCl)c1 [PCM-0103012] | 0 | 0 | 0 | 0.1 | 11.9% | 54.7% | 67.1%
O=C(CCl)Nc1cc(F)ccc1F [PCM-0102284] | 0 | 0 | 0 | 0.28 | 17.7% | 38.2% | 58.8%
O=C(CCl)N(C1CCCC1)C1CCS(=O)(=O)C1 (stereo not drawn) [PCM-0102313] | 0.11 | 0 | 0 | 0 | 42.7% | 64.5% | 65.9%
CC(c1ccc(F)c(F)c1)N(C)C(=O)CCl (stereo not drawn) [PCM-0102438] | 0.14 | 0 | 0 | 0.08 | 16.4% | 23.2% | 39.3%
O=C(CCl)Nc1cc(C(F)(F)F)ccc1N1CCOCC1 [PCM-0102741] | 0 | 0 | 0 | 0.1 | 118% | 102% | 111%
C=CC(=O)N1CCCC2(CNC(=O)O2)C1 (stereo not drawn) [PCM-0102808] | 0 | 0 | 0 | 0.13 | 102% | 103% | 113%
Cc1cc(SC#N)cc(C)c1NC(=O)CCl [PCM-0102586] | 0 | 0 | 0 | 0 | 51.6% | 27.3% | 14.2%
C=CC(=O)NCC1CCN(C)c2ccccc21 (stereo not drawn) [PCM-0102644] | 0 | 0 | 0 | 0 | 73% | 106% | 98.5%
O=C(CCl)N1CCOCC1C1CC1 (stereo not drawn) [PCM-0102870] | 0.17 | 0 | 0 | 0 | 56.7% | 80.6% | 89.5%
C=CC(=O)N1CCC(C(=O)N2CCN(C(C)=O)CC2)CC1 [PCM-0102593] | 0 | 0 | 0 | 0 | 105% | 98.3% | 111%
C=CC(=O)N1CC(c2nc(C)no2)C1 [PCM-0102599] | 0 | 0 | 0 | 0 | 90.9% | 108% | 102%
O=C(CCl)NC(=O)NCc1ccccc1 [PCM-0102122] | 0 | 0 | 0 | 0 | 65.5% | 54.8% | 76.9%
C=CC(=O)NC1CCCCC1n1cccn1 (stereo not drawn) [PCM-0102440] | 0.08 | 0 | 0 | 0 | 98.5% | 91.4% | 100%
O=C(CCl)Nc1ccc(F)c([N+](=O)[O-])c1 [PCM-0102238] | 0.23 | 0 | 0 | 0.32 | 0.8% | 1% | 3.7%
O=C(CCl)NCC(F)(F)F [PCM-0102456] | 0 | 0 | 0 | 0 | 91.9% | 102% | 99.4%
C=CC(=O)N1CC2CC3CC(C2)CC1C3 [PCM-0102443] | 0 | 0 | 0 | 0.24 | 97.7% | 99.9% | 115%

— PMC6556873, “Rapid Covalent-Probe Discovery by Electrophile-Fragment Screening” (Journal of the American Chemical Society, 2019)
